The values below come from patent publication US6448261B1, “Arylamino fused pyridines” (Bristol-Myers Squibb Pharma Company, priority 1996, dated 2002).

SMILES strings stand for the structures.

For orientation: melting point means the temperature, or range, at which the solid turns liquid. In turn, `CCCC(CC)n1nnc2c(Nc3ccc(C(C)C)cc3Br)nc(C)nc21` (racemic) [Example 17, (+/−)-N-[2-bromo-4-(1-methylethyl)phenyl]-3-[1-ethylbutyl]-5-methyl-3H-1,2,3-triazolo[4,5-d]pyrimidin-7-amine] yielded a melting point of 154 to 155 °C.

Compound `CCCCC(CCCC)n1nnc2c(Nc3ccc(C(C)C)cc3Br)nc(C)nc21` [Example 16, N-[2-bromo-4-(1-methylethyl)phenyl]-3-[1-butylpentyl]-5-methyl-3H-1,2,3-triazolo[4,5-d]pyrimidin-7-amine] displayed a melting point of 132 to 133 °C.

`CCCCC(CC)n1nnc2c(Nc3c(Br)cc(OC)cc3OC)nc(C)cc21` (racemic) [Example 227, (+/−)-N-(2-bromo-4,6-dimethoxyphenyl)-1-(1-ethylpentyl)-6-methyl-1H-1,2,3-triazolo[4,5-c]pyridin-4-amine] came in with a melting point of 127 to 128 °C.

For `CCCC(CCC)n1nnc2c(Nc3c(Cl)cc(OC)cc3OC)nc(C)cc21` [Example 225, N-(2-chloro-4,6-dimethoxyphenyl)-6-methyl-1-(1-propylbutyl)-1H-1,2,3-triazolo[4,5-c]pyridin-4-amine], the melting point is 157 to 158 °C.

For the compound `CCCC(CCC)n1nnc2c(Nc3ccc(Br)cc3C)nc(C)nc21` [Example 40, N-(2-Methyl-4-bromophenyl)-3-[1-(1-propyl)butyl]-5-methyl-3H-1,2,3-triazolo[4,5-d]pyrimidin-7-amine], the melting point fell in the range of 126.5 to 128 °C.

Regarding `CCCCC(CC)n1nnc2c(Nc3c(Cl)cc(OC)cc3OC)nc(C)cc21` (racemic) [Example 228, (+/−)-N-(2-chloro-4,6-dimethoxyphenyl)-1-(1-ethylpentyl)-6-methyl-1H-1,2,3-triazolo[4,5-c]pyridin-4-amine], the melting point is 155 to 156 °C.

In turn, `CCC(CC)n1nnc2c(Nc3ccc(C(C)=O)cc3Br)nc(C)nc21` [Example 26, N-(4-acetyl-2-bromophenyl)-3-[1-ethylpropyl]-5-methyl-3H-1,2,3-triazolo[4,5-d]pyrimidin-7-amine] came in with a melting point of 153 to 154 °C.

Turning to `CCC(CC)n1nnc2c(Nc3c(C)cc(C)cc3C)nc(C)nc21` [Example 34, 3-[1-(1-ethyl)propyl]-5-methyl-N-(2,4,6-trimethylphenyl)-3H-1,2,3-triazolo[4,5-d]pyrimidin-7-amine], the melting point lay in the range of 160 to 162 °C.

As for `CCCC(CCC)n1nnc2c(Nc3c(C)cc(C)cc3Br)nc(C)nc21` [Example 21, N-(2-bromo-4,6-dimethylphenyl)-5-methyl-3-[1-propylbutyl]-3H-1,2,3-triazolo[4,5-d]pyrimidin-7-amine], the melting point lay in the range of 141 to 142 °C.

Consider `CCCC(CCC)n1nnc2c(Nc3c(C)cc(C)cc3C)nc(C)nc21` [Example 37, 5-methyl-3-[1-(1-propyl)butyl]-N-(2,4,6-trimethylphenyl)-3H-1,2,3-triazolo[4,5-d]pyrimidin-7-amine], for which the melting point lay in the range of 143 to 144.5 °C.

Turning to `CCC(CC)n1nnc2c(Nc3ccc(C(C)C)cc3Br)nc(C)cc21` [Example 221, N-[2-bromo-4-(1-methylethyl)phenyl]-1-(1-ethylpropyl)-6-methyl-1H-1,2,3-triazolo[4,5-c]pyridin-4-amine], the melting point is 144 to 145 °C.

For `CCC(COC)n1nnc2c(Nc3c(Cl)cc(OC)cc3OC)nc(C)nc21` (racemic) [Example 31, (+/−)-N-(2-chloro-4,6-dimethoxyphenyl)-3-[1-(1-methoxymethyl)propyl]-5-methyl-3H-1,2,3-triazolo[4,5-d]pyrimidin-7-amine], the melting point lay in the range of 149 to 150 °C.

With `CCC(CC)n1nnc2c(Nc3ccc(C(C)C)cc3Br)nc(C)nc21` [Example 19, N-[2-bromo-4-(1-methylethyl)phenyl]-3-[1-ethylpropyl]-5-methyl-3H-1,2,3-triazolo[4,5-d]pyrimidin-7-amine], the melting point was in the range of 171 to 172 °C.

Consider `CCC(COC)n1nnc2c(Nc3ccc(Br)cc3C)nc(C)nc21` (racemic) [Example 42, (+/−)-N-(4-bromo-2-methylphenyl)-3-[1-(1-methoxymethyl)propyl]-5-methyl-3H-1,2,3-triazolo[4,5-d]pyrimidin-7-amine], for which the melting point was in the range of 144.5 to 146 °C.

For the compound `COCCn1nnc2c(Nc3c(C)cc(C)cc3C)nc(C)nc21` [Example 38, 3-(2-methoxyethyl)-5-methyl-N-(2,4,6-trimethylphenyl)-3H-1,2,3-triazolo[4,5-d]pyrimidin-7-amine], the melting point lay in the range of 171.5 to 173.5 °C.

Turning to `CCCC(CCC)n1nnc2c(Nc3ccc(C(C)C)cc3Br)nc(C)nc21` [Example 15, N-[2-bromo-4-(1-methylethyl)phenyl]-3-[1-propylbutyl]-5-methyl-3H-1,2,3-triazolo[4,5-d]pyrimidin-7-amine], the melting point is 69 to 70 °C.

The compound `CCCC(CC)n1nnc2c(Nc3c(C)cc(C)cc3C)nc(C)nc21` (racemic) [Example 35, (+/−)-3-[1-(1-ethyl)butyl]-5-methyl-N-(2,4,6-trimethylphenyl)-3H-1,2,3-triazolo[4,5-d]pyrimidin-7-amine] registered a melting point of 170.5 to 172 °C.

For the compound `COCCn1nnc2c(Nc3ccc(C(C)C)cc3Br)nc(C)nc21` [Example 6, N-[2-bromo-4-(1-methylethyl)phenyl]-3-(2-methoxyethyl)-5-methyl-3H-1,2,3-triazolo[4,5-d]pyrimidin-7-amine], the melting point lay in the range of 94 to 95 °C.

`CCCn1nnc2c(Nc3ccc(C(C)C)cc3Br)nc(C)nc21` [Example 1, N-[2-bromo-4-(1-methylethyl)phenyl]-5-methyl-3-propyl-3H-1,2,3-triazolo[4,5-d]pyrimidin-7-amine] showed a melting point of 80 to 81 °C.

With `COC[C@H](Cc1ccccc1)n1nnc2c(Nc3ccc(C(C)C)cc3Br)nc(C)nc21` [Example 11, (S)-N-[2-bromo-4-(1-methylethyl)phenyl]-3-[1-(1-methoxymethyl)-2-phenylethyl]-5-methyl-3H-1,2,3-triazolo[4,5-d]pyrimidin-7-amine], the melting point lay in the range of 67 to 69 °C.

On to `CCCCC(CC)n1nnc2c(Nc3ccc(C(C)C)cc3Br)nc(C)cc21` (racemic) [Example 226, (+/−)-N-[2-bromo-4-(1-methylethyl)phenyl]-1-(1-ethylpentyl)-6-methyl-1H-1,2,3-triazolo[4,5-c]pyridin-4-amine], for which the melting point lay in the range of 73 to 74 °C.

The compound `CCCCC(CC)n1nnc2c(Nc3ccc(C(C)C)cc3Br)nc(C)nc21` (racemic) [Example 13, (+/−)-N-[2-bromo-4-(1-methylethyl)phenyl]-3-[1-ethylpentyl]-5-methyl-3H-1,2,3-triazolo[4,5-d]pyrimidin-7-amine] registered a melting point of 137 to 138 °C.

Take `CCC(COC)n1nnc2c(Nc3ccc(C(C)C)cc3Br)nc(C)nc21` (racemic) [Example 9, (+/−)-N-[2-bromo-4-(1-methylethyl)phenyl]-3-[1-(1-methoxymethyl)propyl]-5-methyl-3H-1,2,3-triazolo[4,5-d]pyrimidin-7-amine]: the melting point was 115 to 116 °C.

Consider `CCC(COC)n1nnc2c(Nc3ccc(C(C)=O)cc3Br)nc(C)nc21` (racemic) [Example 27, (+/−)-N-(4-acetyl-2-bromophenyl)-3-[1-(1-methoxymethyl)propyl]-5-methyl-3H-1,2,3-triazolo[4,5-d]pyrimidin-7-amine], for which the melting point is 133 to 134 °C.

As to `CCC(CC)n1nnc2c(Nc3c(Br)cc(OC)cc3OC)nc(C)cc21` [Example 222, N-(2-bromo-4,6-dimethoxyphenyl)-1-(1-ethylpropyl)-6-methyl-1H-1,2,3-triazolo[4,5-c]pyridin-4-amine], the melting point lay in the range of 166 to 167 °C.

In turn, `CCCC(CCC)n1nnc2c(Nc3c(Br)cc(OC)cc3OC)nc(C)cc21` [Example 224, N-(2-bromo-4,6-dimethoxyphenyl)-6-methyl-1-(1-propylbutyl)-1H-1,2,3-triazolo[4,5-c]pyridin-4-amine] gave a melting point of 140 to 141 °C.

`CCC(COC)n1nnc2c(Nc3c(Br)cc(OC)cc3OC)nc(C)nc21` (racemic) [Example 30, (+/−)-N-(2-bromo-4,6-dimethoxyphenyl)-3-[1-(1-methoxymethyl)propyl]-5-methyl-3H-1,2,3-triazolo[4,5-d]pyrimidin-7-amine] gave a melting point of 154 to 155 °C.

On to `CCCCC(CC)n1nnc2c(Nc3c(C)cc(C)cc3C)nc(C)nc21` (racemic) [Example 36, (+/−)-3-[1-(1-ethyl)pentyl]-5-methyl-N-(2,4,6-trimethylphenyl)-3H-1,2,3-triazolo[4,5-d]pyrimidine-7-amine], for which the melting point is 129 to 130.5 °C.

On to `CCC(COC)n1nnc2c(Nc3c(C)cc(C)cc3C)nc(C)nc21` (racemic) [Example 32, (+/−)-3-[1-(1-methoxymethyl)propyl]-5-methyl-N-(2,4,6-trimethylphenyl)-3H-1,2,3-triazolo[4,5-d]pyrimidin-7-amine], for which the melting point fell in the range of 144.5 to 147 °C.
